# Assay results reported in patent publication US20210330611A1, “THERAPY FOR NEUROLOGICAL DISEASES/DISORDERS” (priority 2020, published 2021).
# Counter-ions that a name gives are not always drawn. Like-named read-outs stand apart in the source and are kept apart here.
# How the values were obtained:
# [1] = test system: LPS-induced microglia activation; experiment: Image-based assay of LPS-induced microglia activation (HTS and dose response); assay type: cell-based, rat; conditions: for inhibition at 10 µM: Rattus norvegicus, Microglia, read-out: LPS % inhibition
# [2] = test system: fibrin-induced microglia activation; experiment: Image-based assay of fibrin-induced microglia activation (HTS and dose response); assay type: cell-based, rat; conditions: primary microglia HTS, fibrin stimulation; for inhibition at 10 µM: Rattus norvegicus, Microglia, read-out: Fibrin % inhibition
# primary rat microglia [3] = test system: primary rat microglia
# primary rat microglia [4] = experiment: Cell toxicity (dead cells, size <150 μm2) in coated fibrin (cFib) assay; conditions: primary microglia HTS;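 also: share of dead cells sized under 150 µm2 at 10 µM in fibrin-stimulated microglia HTS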
# [5] = test system: fibrin- and LPS-induced microglia activation; experiment: cells; assay type: cell-based, rat
# [6] = cell size >800 μm2 as marker of activation
# [7] = fibrin stimulation, cell size <150 μm2 as marker of toxicity
# [8] = classification by fibrin and LPS inhibition in HTS
# [9] = primary microglia HTS, LPS stimulation, compounds at 10 μM
# [10] = fibrin assay, dead cells (size <150 μm2)
# [11] = quadrant by fibrin and LPS inhibition, HTS at 10 μM
# [12] = fibrin assay, dead cells (size <150 μm2), compounds at 10 μM
# [13] = classification by fibrin and LPS inhibition, HTS at 10 μM
Compound,inhibition at 10 µM ([1]; 48 h),"inhibition at 10 µM [2, 6]",LPS % cell toxicity (primary rat microglia [3]; rat),Fibrin % cell toxicity (primary rat microglia [4]; [7]),"Quadrant (FIG. 5b) [5, 8]","inhibition at 10 µM [1, 9]",inhibition at 10 µM ([2]; compounds at 10 μM),Fibrin % cell toxicity (primary rat microglia [4]; [10]),"Quadrant (FIG. 5b) [5, 11]",also measured
CCOc1ccc(NC(C)=O)cc1 [Phenacetin],16%,-5%,0%,1%,Q4,,,,,
COc1ccc(C(=O)CC(=O)c2ccc(C(C)(C)C)cc2)cc1 [Avobenzone],,,0%,,,20%,22%,1%,Q4,
"Oc1ccc(Cl)cc1Cc1cc(Cl)ccc1O [Dichlorophene, Dichlorophen]",,,,,,,,,,"LPS % inhibition [1, 9]: 15%; Fibrin % inhibition ([2]; compounds at 10 μM): −23%; LPS % cell toxicity (primary rat microglia [3]): 0%; Fibrin % cell toxicity (primary rat microglia [4]; [12]): 1%; Quadrant (FIG. 5b) [5, 13]: Q4"
O=C1c2c(O)cccc2C([C@@H]2O[C@H](CO)[C@@H](O)[C@H](O)[C@H]2O)c2cc(CO)cc(O)c21 (some centres unmarked) [Aloin],,,0%,,,14%,-35%,1%,Q4,
CCOC(=O)[C@H](CCc1ccccc1)N[C@@H](C)C(=O)N1[C@H](C(=O)O)C[C@@H]2CCC[C@@H]21 [Ramipril],16%,8%,0%,0%,Q4,,,,,
Cc1cc(N)c2ccccc2[n+]1CCCCCCCCCC[n+]1c(C)cc(N)c2ccccc21 [Dequadin],,,0%,,,2%,-32%,,,"Fibrin % cell toxicity (primary rat microglia [4]; [12]): 0%; Quadrant (FIG. 5b) [5, 13]: Q4"
CNC(=C[N+](=O)[O-])NCCSCc1ccc(CN(C)C)o1 [Ranitidine],15%,35%,0%,1%,Q4,,,,,
Clc1ccc(C(Cn2ccnc2)OCc2csc3c(Cl)cccc23)c(Cl)c1 (centres unmarked) [Sertaconazole],11%,-25%,0%,1%,Q4,,,,,
CCOC(=O)/C=C(C)/C=C/C=C(C)/C=C/c1c(C)cc(OC)c(C)c1C [Etretinate],,,0%,,,9%,-19%,,,"Fibrin % cell toxicity (primary rat microglia [4]; [12]): 1%; Quadrant (FIG. 5b) [5, 13]: Q4"
CC(=O)Oc1cccc(O)c1 [Resorcinol Monoacetate],26%,12%,1%,1%,Q4,,,,,
NCc1cccnc1 [Picolamine],4%,-1%,0%,1%,Q4,,,,,
CCc1ccc(CCOc2ccc(CC3SC(=O)NC3=O)cc2)nc1 (centres unmarked) [Pioglitazone],33%,2%,1%,1%,Q4,,,,,
C[C@]12CC[C@@H]3c4ccc(OC(=O)N(CCCl)CCCl)cc4CC[C@H]3[C@@H]1CC[C@@H]2O [Estramustine],,,1%,,,16%,8%,,,"Fibrin % cell toxicity (primary rat microglia [4]; [12]): 1%; Quadrant (FIG. 5b) [5, 13]: Q4"
C=C[C@H]1CN2CC[C@H]1C[C@H]2[C@H](OC(=O)OCC)c1ccnc2ccc(OC)cc12 [Quinine Ethyl Carbonate],-11%,-21%,0%,0%,Q4,,,,,
CC(=O)NC(CCC(N)=O)C(=O)O (centres unmarked) [Aceglutamide],,,0%,,,20%,36%,1%,Q4,
CC(=O)N[C@@H](CC(=O)N[C@@H](CCC(=O)O)C(=O)O)C(=O)O [Spaglumic Acid],15%,-15%,0%,1%,Q4,,,,,
OC(CCN1CCCCC1)(c1ccccc1)c1ccccc1 [Pridinol],4%,-18%,0%,1%,Q4,,,,,
Nc1c(Br)cc(Br)cc1CN[C@H]1CC[C@H](O)CC1 [Ambroxol Hydrochloride],,,0%,,,9%,-19%,0%,Q4,
NCC[C@H](O)C(=O)N[C@@H]1C[C@H](N)[C@@H](O[C@H]2O[C@H](CN)[C@@H](O)[C@H](O)[C@H]2O)[C@H](O)[C@H]1O[C@H]1O[C@H](CO)[C@@H](O)[C@H](N)[C@H]1O.O=S(=O)(O)O.O=S(=O)(O)O [Amikacin Sulfate],,,,,,,,1%,Q4,"LPS % inhibition [1, 9]: 1%; Fibrin % inhibition ([2]; compounds at 10 μM): 3%; LPS % cell toxicity (primary rat microglia [3]): 0%"
O=C(O)CCCCCCCC(=O)O [Azelaic Acid],,,0%,,,19%,6%,0%,Q4,
"NC(Cc1ccc(Cl)cc1)C(=O)O (racemic) [(±)-p-chlorophenylalanine, Fenclonine]",,,,,,,,1%,Q4,"LPS % inhibition [1, 9]: 5%; Fibrin % inhibition ([2]; compounds at 10 μM): 16%; LPS % cell toxicity (primary rat microglia [3]): 0%"
CC(=O)N[C@@H](CC(C)C)C(=O)O [Acetyl-l-leucine],,,3%,,,45%,-10%,5%,Q4,
CC(C)[N+](C)(CCOC(=O)C1c2ccccc2Oc2ccccc21)C(C)C [Propantheline],20%,-7%,0%,1%,Q4,,,,,
C[C@@H](CO)NC(=O)[C@@H]1C=C2c3cccc4[nH]cc(c34)C[C@H]2N(C)C1 [Ergonovine],,,0%,,,,,,,"LPS % inhibition ([1]; primary microglia HTS, LPS stimulation, compounds at 10 μM, 10 µM): −10%; Fibrin % inhibition ([2]; compounds at 10 μM, 10 µM): −23%; Fibrin % cell toxicity (primary rat microglia [4]; [12]): 1%; Quadrant (FIG. 5b) [5, 13]: Q4"
COc1ccc(-c2cc(C(F)F)nn2-c2ccc(S(N)(=O)=O)cc2)cc1F [Deracoxib],,,0%,,,8%,-34%,,,"Fibrin % cell toxicity (primary rat microglia [4]; [12]): 0%; Quadrant (FIG. 5b) [5, 13]: Q4"
CCN(CC)CCOC(=O)C(c1ccccc1)C1CCCCC1 (centres unmarked) [Drofenine Hydrochloride],,,0%,,,9%,-44%,,,"Fibrin % cell toxicity (primary rat microglia [4]; [12]): 1%; Quadrant (FIG. 5b) [5, 13]: Q4"
C[C@@H](O[C@H]1OCCN(Cc2n[nH]c(=O)[nH]2)[C@H]1c1ccc(F)cc1)c1cc(C(F)(F)F)cc(C(F)(F)F)c1 [Aprepitant],,,0%,,,1%,20%,1%,Q4,
N[C@H](Cc1ccccc1)C(=O)O [D-phenylalanine],,,0%,,,23%,1%,,,"Fibrin % cell toxicity (primary rat microglia [4]; [12]): 1%; Quadrant (FIG. 5b) [5, 13]: Q4"
